Experimental data from ChEMBL document CHEMBL1154784, “Discovery of potential ZAP-70 kinase inhibitors: pharmacophore design, database screening and docking studies” (Eur J Med Chem, 2009).

Target: T1, Tyrosine-protein kinase ZAP-70 (Homo sapiens, UniProt P43403)
T1 sequence (P43403 whole entry): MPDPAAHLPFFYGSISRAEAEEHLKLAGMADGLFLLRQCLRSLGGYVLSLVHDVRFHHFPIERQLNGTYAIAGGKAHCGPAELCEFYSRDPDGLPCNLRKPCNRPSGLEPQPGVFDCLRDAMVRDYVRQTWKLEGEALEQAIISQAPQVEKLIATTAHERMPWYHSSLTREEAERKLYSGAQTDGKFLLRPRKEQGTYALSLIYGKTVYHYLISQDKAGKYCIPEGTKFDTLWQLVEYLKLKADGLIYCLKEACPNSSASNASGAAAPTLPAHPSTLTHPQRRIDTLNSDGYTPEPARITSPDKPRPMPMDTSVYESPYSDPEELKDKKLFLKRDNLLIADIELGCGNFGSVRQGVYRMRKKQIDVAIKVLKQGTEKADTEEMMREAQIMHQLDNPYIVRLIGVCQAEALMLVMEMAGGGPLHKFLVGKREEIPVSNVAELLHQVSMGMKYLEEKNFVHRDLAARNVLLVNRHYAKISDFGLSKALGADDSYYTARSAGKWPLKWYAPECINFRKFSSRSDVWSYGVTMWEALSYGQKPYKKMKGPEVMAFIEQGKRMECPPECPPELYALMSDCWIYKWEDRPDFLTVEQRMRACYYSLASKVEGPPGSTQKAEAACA
Test: Inhibition of human GST-fused ZAP-70 expressed in Sf9 cells

Row | IC50 | Compound
1 | 25 µM | Cc1c(CCC(=O)O)c[nH]c1/C=C1\C(=O)Nc2ccccc21
2 | 28.4 µM | Cc1[nH]c(/C=C2\C(=O)Nc3ccccc32)c(C)c1CCC(=O)O [ORANTINIB]
